# Test results from paper PMC9128828 (Nature medicine, 2021).
# How the values were obtained:
# [1] = Plasma pharmacokinetics of belzutifan, phase 1 study; type: in vivo, human
# erythropoietin = experiment: Pharmacodynamics: plasma erythropoietin, phase 1 study; type: in vivo, human; conditions: all dose levels
# [2] = Safety and dose-limiting toxicities, dose-escalation cohort; type: in vivo, human
# Safety = type: in vivo, human; conditions: for All-cause adverse event: Anemia / All-cause adverse event: Any / All-cause adverse event: Arthralgia / All-cause adverse event: Back pain / All-cause adverse event: Blood creatinine increased / All-cause adverse event: Constipation / All-cause adverse event: Cough / All-cause adverse event: Dehydration / All-cause adverse event: Diarrhea / All-cause adverse event: Dizziness / All-cause adverse event: Dyspnea / All-cause adverse event: Edema peripheral / All-cause adverse event: Fatigue / All-cause adverse event: Headache / All-cause adverse event: Hyperkalemia / All-cause adverse event: Hypoxia / All-cause adverse event: Nausea / All-cause adverse event: Vomiting: ccRCC cohort (n = 55)
# advanced solid tumors = experiment: Anti-tumor activity per RECIST v1.1, dose-escalation cohort; type: in vivo, human
# [3] = test system: previously treated advanced ccRCC; experiment: Anti-tumor activity per RECIST v1.1, ccRCC cohort; type: in vivo, human
# [4] = previous study; cited from earlier work
# mouse xenograft models = conditions: mouse xenograft models; cited from earlier work
# [5] = ccRCC cohort n = 55, all grade 3
# [6] = RECIST v1.1, ccRCC cohort, n = 55
compound,measurement,setting,value
"CS(=O)(=O)c1ccc(Oc2cc(F)cc(C#N)c2)c2c1[C@H](O)[C@H](F)[C@@H]2F [belzutifan, 3-[(1 S,2 S,3 R)-2,3-difluoro-1-hydroxy-7-methylsulfonylindan-4-yl]oxy-5-fluorobenzo nitrile]","Dose-normalized area under the concentration curve from time 0 to the end of the dosing period, dependence on dose",[1]; 20–240 mg once daily,increased with dose from 20 to 120 mg but decreased from 120 to 240 mg once daily
same,Mean accumulation ratio,[1]; 120-mg twice-daily dosing,2.4
same,Increase in maximum concentration,[1]; 240-mg once-daily cohort compared to 120-mg once-daily expansion cohort,38%
same,Median time to maximum observed plasma concentration,"[1]; across dose levels, oral",1.0 to 2.0 h
same,half-life,"[1]; human, in vivo, po",672 to 1290 min
same,Mean accumulation ratio,[1]; once-daily dosing,1.3–1.5
same,Change in plasma erythropoietin,erythropoietin,reductions
same,Patients with treatment-related dose-limiting toxicity,"[2]; 120 mg twice daily, one of six patients, grade 3 hypoxia",17%
same,Patients with treatment-related dose-limiting toxicity,"[2]; 240 mg orally, one of seven patients, grade 4 thrombocytopenia",14%
same,Maximum tolerated dose,[2]; dose-escalation cohort,not reached
same,Dose-limiting toxicities,[2]; doses up to 160 mg once daily,no dose-limiting toxicities
same,Patients with anemia who received exogenous erythropoietin,Safety; 28 of 42 patients with anemia,67%
same,All-cause adverse event: Anemia,Safety; All grades or 2,42 (76) no. (%)
same,All-cause adverse event: Any,Safety; All grades or 2,55 (100) no. (%)
same,All-cause adverse event: Arthralgia,Safety; All grades or 2,14 (25) no. (%)
same,All-cause adverse event: Back pain,Safety; All grades or 2,12 (22) no. (%)
same,All-cause adverse event: Blood creatinine increased,Safety; All grades or 2,14 (25) no. (%)
same,All-cause adverse event: Constipation,Safety; All grades or 2,12 (22) no. (%)
same,All-cause adverse event: Cough,Safety; All grades or 2,17 (31) no. (%)
same,All-cause adverse event: Dehydration,Safety; All grades or 2,11 (20) no. (%)
same,All-cause adverse event: Diarrhea,Safety; All grades or 2,12 (22) no. (%)
same,All-cause adverse event: Dizziness,Safety; All grades or 2,13 (24) no. (%)
same,All-cause adverse event: Dyspnea,Safety; All grades or 2,27 (49) no. (%)
same,All-cause adverse event: Edema peripheral,Safety; All grades or 2,15 (27) no. (%)
same,All-cause adverse event: Fatigue,Safety; All grades or 2,39 (71) no. (%)
same,All-cause adverse event: Headache,Safety; All grades or 2,14 (25) no. (%)
same,All-cause adverse event: Hyperkalemia,Safety; All grades or 2,12 (22) no. (%)
same,All-cause adverse event: Hypoxia,Safety; All grades or 2,17 (31) no. (%)
same,All-cause adverse event: Nausea,Safety; All grades or 2,20 (36) no. (%)
same,All-cause adverse event: Vomiting,Safety; All grades or 2,16 (29) no. (%)
same,All-cause adverse event: Anemia,Safety; Grade 1,27 (49) no. (%)
same,All-cause adverse event: Any,Safety; Grade 1,16 (29) no. (%)
same,All-cause adverse event: Arthralgia,Safety; Grade 1,14 (25) no. (%)
same,All-cause adverse event: Back pain,Safety; Grade 1,11 (20) no. (%)
same,All-cause adverse event: Blood creatinine increased,Safety; Grade 1,13 (24) no. (%)
same,All-cause adverse event: Constipation,Safety; Grade 1,12 (22) no. (%)
same,All-cause adverse event: Cough,Safety; Grade 1,17 (31) no. (%)
same,All-cause adverse event: Dehydration,Safety; Grade 1,10 (18) no. (%)
same,All-cause adverse event: Diarrhea,Safety; Grade 1,12 (22) no. (%)
same,All-cause adverse event: Dizziness,Safety; Grade 1,13 (24) no. (%)
same,All-cause adverse event: Dyspnea,Safety; Grade 1,24 (44) no. (%)
same,All-cause adverse event: Edema peripheral,Safety; Grade 1,15 (27) no. (%)
same,All-cause adverse event: Fatigue,Safety; Grade 1,36 (65) no. (%)
same,All-cause adverse event: Headache,Safety; Grade 1,13 (24) no. (%)
same,All-cause adverse event: Hyperkalemia,Safety; Grade 1,11 (20) no. (%)
same,All-cause adverse event: Hypoxia,Safety; Grade 1,8 (15) no. (%)
same,All-cause adverse event: Nausea,Safety; Grade 1,19 (35) no. (%)
same,All-cause adverse event: Vomiting,Safety; Grade 1,16 (29) no. (%)
same,All-cause adverse event: Anemia,Safety; Grade 3,15 (27) no. (%)
same,All-cause adverse event: Any,Safety; Grade 3,33 (60) no. (%)
same,All-cause adverse event: Arthralgia,Safety; Grade 3,0 (0) no. (%)
same,All-cause adverse event: Back pain,Safety; Grade 3,1 (2) no. (%)
same,All-cause adverse event: Blood creatinine increased,Safety; Grade 3,1 (2) no. (%)
same,All-cause adverse event: Constipation,Safety; Grade 3,0 (0) no. (%)
same,All-cause adverse event: Cough,Safety; Grade 3,0 (0) no. (%)
same,All-cause adverse event: Dehydration,Safety; Grade 3,1 (2) no. (%)
same,All-cause adverse event: Diarrhea,Safety; Grade 3,0 (0) no. (%)
same,All-cause adverse event: Dizziness,Safety; Grade 3,0 (0) no. (%)
same,All-cause adverse event: Dyspnea,Safety; Grade 3,3 (5) no. (%)
same,All-cause adverse event: Edema peripheral,Safety; Grade 3,0 (0) no. (%)
same,All-cause adverse event: Fatigue,Safety; Grade 3,3 (5) no. (%)
same,All-cause adverse event: Headache,Safety; Grade 3,1 (2) no. (%)
same,All-cause adverse event: Hyperkalemia,Safety; Grade 3,1 (2) no. (%)
same,All-cause adverse event: Hypoxia,Safety; Grade 3,9 (16) no. (%)
same,All-cause adverse event: Nausea,Safety; Grade 3,1 (2) no. (%)
same,All-cause adverse event: Vomiting,Safety; Grade 3,0 (0) no. (%)
same,All-cause adverse event: Anemia,Safety; Grade 4,0 (0) no. (%)
same,All-cause adverse event: Any,Safety; Grade 4,2 (4) no. (%)
same,All-cause adverse event: Arthralgia,Safety; Grade 4,0 (0) no. (%)
same,All-cause adverse event: Back pain,Safety; Grade 4,0 (0) no. (%)
same,All-cause adverse event: Blood creatinine increased,Safety; Grade 4,0 (0) no. (%)
same,All-cause adverse event: Constipation,Safety; Grade 4,0 (0) no. (%)
same,All-cause adverse event: Cough,Safety; Grade 4,0 (0) no. (%)
same,All-cause adverse event: Dehydration,Safety; Grade 4,0 (0) no. (%)
same,All-cause adverse event: Diarrhea,Safety; Grade 4,0 (0) no. (%)
same,All-cause adverse event: Dizziness,Safety; Grade 4,0 (0) no. (%)
same,All-cause adverse event: Dyspnea,Safety; Grade 4,0 (0) no. (%)
same,All-cause adverse event: Edema peripheral,Safety; Grade 4,0 (0) no. (%)
same,All-cause adverse event: Fatigue,Safety; Grade 4,0 (0) no. (%)
same,All-cause adverse event: Headache,Safety; Grade 4,0 (0) no. (%)
same,All-cause adverse event: Hyperkalemia,Safety; Grade 4,0 (0) no. (%)
same,All-cause adverse event: Hypoxia,Safety; Grade 4,0 (0) no. (%)
same,All-cause adverse event: Nausea,Safety; Grade 4,0 (0) no. (%)
same,All-cause adverse event: Vomiting,Safety; Grade 4,0 (0) no. (%)
same,Patients requiring dose reductions or discontinuations for anemia,Safety; ccRCC cohort,No patients
same,Patients with at least one adverse event,Safety; ccRCC cohort,All patients
same,Treatment-related grade 4 or 5 events,Safety; ccRCC cohort,No treatment-related grade 4 or 5 events occurred
same,Treatment-related adverse event: anemia,Safety; ccRCC cohort n = 55,71%
same,Treatment-related adverse event: hypoxia,Safety; ccRCC cohort n = 55,18%
same,Treatment-related adverse event: nausea,Safety; ccRCC cohort n = 55,15%
same,Treatment-related adverse event: peripheral edema,Safety; ccRCC cohort n = 55,16%
same,Grade ≥3 treatment-emergent adverse event: anemia,Safety; [5],27%
same,Grade ≥3 treatment-emergent adverse event: hypoxia,Safety; [5],16%
same,Patients requiring dose reductions because of treatment-related adverse events,"Safety; ccRCC cohort, five patients",9%
same,Patients who discontinued after treatment-related adverse events,"Safety; ccRCC cohort, two patients, both hypoxia",4%
same,Patients with grade 5 adverse events,"Safety; ccRCC cohort, disease progression, malignant neoplasm progression, acute kidney injury, cardiac arrest",four patients
same,Responses (all partial),"advanced solid tumors; 120 mg once daily, one of six patients",17%
same,Responses (all partial),"advanced solid tumors; 120 mg twice daily, one of six patients",17%
same,Responses (all partial),"advanced solid tumors; 160 mg once daily, two of six patients",33%
same,Median duration of response,"advanced solid tumors; any dose cohort, patients who had a response",not reached
same,Patients with target lesion size reduced from baseline,[3]; 35 of 52 patients with baseline and post-baseline imaging,67%
same,Median progression-free survival,[3]; IMDC favorable risk,not reached
same,Complete response,[3]; [6],0 (0) no. (%)
same,Non-evaluable,[3]; [6],3 (5) no. (%)
same,Partial response,[3]; [6],14 (25) no. (%)
same,Progressive disease,[3]; [6],8 (15) no. (%)
same,Stable disease,[3]; [6],30 (54) no. (%)
same,Median duration of response,[3]; ccRCC cohort,not reached
same,Disease control rate,"[3]; ccRCC cohort n = 55, 120 mg once daily",80%
same,Objective response rate,"[3]; ccRCC cohort n = 55, 120 mg once daily, all partial responses",25%
same,Median progression-free survival,"[3]; ccRCC cohort, 95% CI 7.3–not reached, Kaplan–Meier",14.5 months
same,Responders with duration of response ≥6 months,[3]; ten of 14 responders,71%
same,"Exposure to belzutifan, dependence on dose",[4],increased with doses up to 120 mg once daily
same,Potency relative to MK-3795,mouse xenograft models,approximately ten-fold more potent than MK-3795
